Reference: patent EP3856749B1, “WATER-SOLUBLE, NON-AGGREGATED SILICON PHTALGCYANINE COMPOUND HAVING IN VITRO ANTICANCER EFFECT AGAINST CANCER TYPES OF LUNG, LIVER, BREST AND MELANOMA” (Karadeniz Teknik Universitesi, priority 2018, dated 2020)

Columns and labels:
pBR322 plasmid DNA [1] = assay: Oxidative nuclease activity; type: biochemical; settings: with oxidative agent (H2O2, AA, ME) under irradiation
Procedure: Auxiliary reagents are added to H2O2, AA, ME medium so as to examine oxidative cleavage activities of the compounds.
In this study, pBR322 plasmid DNA is formed of buffer solution (50 mM Tris-HCl (pH 7)), auxiliary reagents and increasing concentrations of compounds, such that well contents are of 10 µL. The oxidative nuclease activity studies were performed under light irradiation. At the end of this period, after mixtures are incubated in darkness at 37 °C for an hour, reaction is stopped by means of above-mentioned methods and cleavage products are observed on the agarose gel under UV light.
Subsequent to the determination of hydrolytic nuclease activities of the compounds 7a and 3a, cleavage reactions are carried out by way of adding hydrogen peroxide (H2O2) (0.4 M), ascorbic acid (AA) (2.5 mM) and mercaptoethanol (ME) (0.4 M) so as to examine its oxidative cleavage capabilities with/without irradiation and the related results are given in Figure 4.

topoisomerase I enzyme = biological target: T1, topoisomerase I enzyme (Homo sapiens, UniProt P11387); assay: Topoisomerase I inhibition (relaxation method); type: biochemical; settings: 1 U Topo I, pBR322 plasmid DNA; 7a 12.5-37.5 µM; 3a 12.5-25 µM
T1 sequence (P11387 1-765): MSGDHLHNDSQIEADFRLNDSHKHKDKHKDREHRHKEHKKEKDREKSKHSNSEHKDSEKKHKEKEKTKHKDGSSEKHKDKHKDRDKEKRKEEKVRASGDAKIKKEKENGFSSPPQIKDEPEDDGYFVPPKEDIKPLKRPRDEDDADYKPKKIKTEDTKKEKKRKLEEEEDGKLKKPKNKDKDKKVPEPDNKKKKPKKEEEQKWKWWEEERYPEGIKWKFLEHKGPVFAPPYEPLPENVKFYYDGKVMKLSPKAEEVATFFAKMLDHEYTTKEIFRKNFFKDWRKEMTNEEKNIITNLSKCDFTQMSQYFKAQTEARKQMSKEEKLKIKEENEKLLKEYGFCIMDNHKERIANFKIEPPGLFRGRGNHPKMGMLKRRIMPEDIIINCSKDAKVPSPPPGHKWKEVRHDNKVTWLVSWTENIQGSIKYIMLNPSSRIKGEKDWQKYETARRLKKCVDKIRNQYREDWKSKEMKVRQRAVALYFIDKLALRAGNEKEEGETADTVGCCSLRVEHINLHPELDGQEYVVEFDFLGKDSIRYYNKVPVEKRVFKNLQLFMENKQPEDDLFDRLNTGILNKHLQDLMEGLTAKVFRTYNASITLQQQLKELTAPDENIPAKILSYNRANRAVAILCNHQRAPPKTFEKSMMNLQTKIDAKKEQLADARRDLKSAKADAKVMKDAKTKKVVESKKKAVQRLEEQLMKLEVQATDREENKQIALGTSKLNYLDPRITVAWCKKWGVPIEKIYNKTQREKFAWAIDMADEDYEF
Procedure: After incubation process, samples are loaded to 0.8 % of agarose gel, exposed to electrophoresis in the running buffer by applying 40 volt of current for 3 hours and forms obtained are observed on the agarose gel under UV light.

topoisomerase II enzyme = assay: Topoisomerase II inhibition (relaxation method); type: biochemical; settings: 1 U Topo II, pBR322 plasmid DNA; 7a 12.5-37.5 µM; doxorubicin as standard
Procedure: After incubation process, samples are loaded to 0.8 % of agarose gel, exposed to electrophoresis in the running buffer by applying 40 volts of current for 3 hours and forms obtained are observed on the agarose gel under UV light.

pBR322 plasmid DNA [2] = assay: Determination of reactive oxygen types in photonuclease activity; type: biochemical; settings: 3a (50 µM), stimulation with light
Procedure: Inhibition tests are performed in the presence of standard radical scavengers so as to determine active oxygen types effective on its cleavage in the presence of light on pBR322 plasmid DNA of complexes. For that purpose, it used ethanol (EtOH), methanol (MeOH) and dimethyl sulphoxide (DMSO) as hydroxyl radical scavenger; sodium azide and L-histidine as singlet oxygen scavenger; SOD as superoxide radical scavenger, EDTA as chelating agent and catalase as hydrogen peroxide adsorbent. It is also observed whether or not results obtained by using different types scavenging the same type of radicals support each other. Different reaction mixtures are formed by means of adding pBR322 plasmid DNA and complex in the efficient concentration and any one of above mentioned standard radical scavengers in variable concentrations into 50 mM Tris-HCl buffer. Subsequent to incubation of different reaction mixture formed at 37°C for an hour, it comprises the process of examining and monitoring these products. […]

CT-DNA = assay: Determination of DNA melting temperature; type: binding; settings: absorbance at 260 nm; CT-DNA alone 75.57 °C
Procedure: Studies pertaining to determination of DNA melting temperature is carried out by means of Cary 100 Bio UV-Visible Spectrophotometer with Varian Cary Temperature Controller unit.
(§1) The absorbance is measured at 260 nm at every 0.5 °C in the range of 60-90 °C by increasing temperature of the cell comprising the basin by 1 °C every minute by means of employing thermal melting program. Values Tm are automatically calculated by the device from t(°C)-Absorbance curve of CT-DNA drawn in the presence and absence of the compound depending on its absorbance in 260 nm.
as §1, with “program of DNA melting temperature of the compound 3a.” for “program.”, “3a” for “the compound”, “nm. While the melting temperature of CT-DNA is at 75.57 °C, the melting temperature of the compounds CT-DNA + 3a is at 81.82 °C. An increase at the melting temperatures strengthens the potential that the compounds becomes an intercalative agents.” for “nm.”

Row | Substance | oxidative cleavage activity (pBR322 plasmid DNA [1]) | topoisomerase I inhibition effect (topoisomerase I enzyme) | topoisomerase II inhibition effect (topoisomerase II enzyme) | effect of singlet oxygen scavengers NaN3 and L-Histidine on cleavage (pBR322 plasmid DNA [2]) | melting temperature of CT-DNA + compound (CT-DNA)
1 | bis(3,5-bis{3-[3-(diethylmethylamino)phenoxy]propoxy}phenyl)methoxy)phthalocyaninato silicon (IV) Iodide [7a] | significantly high cleavage activity | supercoiled form rate increases | Effective results are observed compared to doxorubicin | – | –
2 | bis(3,5-bis{3-[3-trimethylamino)phenoxy]propoxy}phenyl)methoxy)phthalocyaninato silicon (IV) Iodide [3a] | – | supercoiled form rate increases | – | prevent the cleavage | 81.82 °C
